Results published in patent US12543738B2 (Bayer Aktiengesellschaft, priority 2020, dated 2026).

What was measured:
Septoria tritici = Septoria tritici in vitro cell test; format: cell-based; conditions: Zymoseptoria tritici, 168 h; 20 ppm of active ingredient; liquid culture, 7 days incubation; read-out: efficacy (inhibition of fungal growth)
Description: • Solvent: DMSO • Culture medium: 1 g KH2PO4 (VWR), 1 g K2HPO4 (VWR), 0.5 g Urea (VWR), 3 g KNO3 (Prolabo), 10 g saccharose (VWR), 0.5 g MgSO4, 7H2O (Sigma), 0.07 g CaCl2, 2H2O (Prolabo), 0.2 mg MnSO4, H2O (Sigma), 0.6 mg CuSO4, 5H2O (Sigma), 7.9 mg ZnSO4, 7H2O (Sigma), 0.1 mg H3BO3 (Merck), 0.14 mg NaMoO4, 2H2O (Sigma), 2 mg thiamine (Sigma), 0.1 mg biotine (VWR), 4 mg FeSO4, 7H2O (Sigma), QSP 1 liter • Inoculum: spore suspension Fungicides were solubilized in DMSO and the solution used to prepare the required range of concentrations. […] A spore suspension of S. tritici was prepared and diluted to the desired spore density. Fungicides were evaluated for their ability to inhibit spore germination and mycelium growth in liquid culture assay. The compounds were added in the desired concentration to the culture medium with spores. […] Inhibition of fungal growth was determined by comparing the absorbance values in wells containing the fungicides with the absorbance in control wells without fungicides.

Sphaerotheca fuliginea = experiment: In vivo preventive test on Sphaerotheca fuliginea (powdery mildew on cucurbits); conditions: Podosphaera fuliginea, 192 h; 500 ppm of active ingredient; preventive spray on gherkin; evaluated 8 days after inoculation; read-out: efficacy
Description: (§1) The active ingredients were made soluble and homogenized in a mixture of Dimethyl sulfoxide/Acetone//Tween® 80 and then diluted in water to the desired concentration. The young plants of gherkin were treated by spraying the active ingredient prepared as described above. Control plants were treated only with an aqueous solution of Acetone/Dimethyl sulfoxide/Tween® 80. After 24 hours, the plants were contaminated by spraying the leaves with an aqueous suspension of Sphaerotheca fuliginea spores.

Alternaria brassicae = experiment: In vivo preventive test on Alternaria brassicae (leaf spot on radish or cabbage); conditions: 144 h, 500 ppm of active ingredient, preventive spray on radish or cabbage, evaluated 6 days after inoculation, read-out: efficacy
Description: as §1, with “radish or cabbage” for “gherkin”, “Alternaria brassicae” for “Sphaerotheca fuliginea”

[1] = system: Colletotrichum lindemuthianum; experiment: Colletotrichum lindemuthianum in vitro cell test; format: cell-based; conditions: 144 h, 20 ppm of active ingredient, liquid culture, 6 days incubation, read-out: efficacy (inhibition of fungal growth)
Description: (§2) • Solvent: DMSO • Culture medium: 14.6 g anhydrous D-glucose (VWR), 7.1 g Mycological Peptone (Oxoid), 1.4 g granulated Yeast Extract (Merck), QSP 1 liter • Inoculum: spores suspension Fungicides were solubilized in DMSO and the solution used to prepare the required range of concentrations. […] A spore suspension of C. lindemuthianum was prepared and diluted to the desired spore density. Fungicides were evaluated for their ability to inhibit spores germination and mycelium growth in liquid culture assay. The compounds were added in the desired concentration to the culture medium with spores. After 6 days incubation, fungi-toxicity of compounds was determined by spectrometric measurement of mycelium growth. Inhibition of fungal growth was determined by comparing the absorbance values in wells containing the fungicides with the absorbance in control wells without fungicides.

[2] = Measurement of LogP values by HPLC on reversed phase columns (EEC directive 79/831 Annex V.A8); format: physicochemical; conditions: method [a]: LC-UV, acidic range, 0.1% formic acid in water and acetonitrile; compounds of formula (I-1), Table 1
Description: Calibration was done with straight-chain alkan2-ones (with 3 to 16 carbon atoms) with known LogP values (measurement of LogP values using retention times with linear interpolation between successive alkanones). Lambda-max-values were determined using UV-spectra from 200 nm to 400 nm and the peak values of the chromatographic signals

Botrytis cinerea = experiment: In vivo preventive test on Botrytis cinerea (grey mould); conditions: 500 ppm of active ingredient, preventive spray on gherkin or cabbage, evaluated 4 to 5 days after inoculation, read-out: efficacy
Description: as §1, with “gherkin or cabbage” for “gherkin”, “Botrytis cinerea” for “Sphaerotheca fuliginea”

Pyrenophora teres = experiment: In vivo preventive test on Pyrenophora teres (net blotch on barley); conditions: 240 h, 500 ppm of active ingredient, preventive spray on barley, evaluated 10 days after inoculation, read-out: efficacy
Description: as §1, with “barley” for “gherkin”, “Pyrenophora teres” for “Sphaerotheca fuliginea”

Fusarium culmorum = Fusarium culmorum in vitro cell test; format: cell-based; conditions: 96 h, 20 ppm of active ingredient, liquid culture, 4 days incubation, read-out: efficacy (inhibition of fungal growth)
Description: • Solvent: DMSO • Culture medium: 14.6 g anhydrous D-glucose (VWR), 7.1 g Mycological Peptone (Oxoid), 1.4 g granulated Yeast Extract (Merck), QSP 1 liter • Inoculum: spore suspension • Fungicides were solubilized in DMSO and the solution used to prepare the required range of concentrations. The final concentration of DMSO used in the assay was ≤1%.
A spore suspension of F. culmorum was prepared and diluted to the desired spore density.
Fungicides were evaluated for their ability to inhibit spore germination and mycelium growth in liquid culture assay. The compounds were added in the desired concentration to the culture medium with spores. After 4 days incubation, fungi-toxicity of compounds was determined by spectrometric measurement of mycelium growth. Inhibition of fungal growth was determined by comparing the absorbance values in wells containing the fungicides with the absorbance in control wells without fungicides.

[3] = system: Colletotrichum lindemuthianum; experiment: In vivo preventive test on Colletotrichum lindemuthianum (leaf spot on bean); conditions: 168 h, 500 ppm of active ingredient, preventive spray on bean, evaluated 7 days after inoculation, read-out: efficacy
Description: as §1, with “bean” for “gherkin”, “Colletotrichum lindemuthianum” for “Sphaerotheca fuliginea”

Pyricularia Oryzae = experiment: microbe, parasite or virus in culture; format: cell-based; conditions: 120 h, read-out: efficacy (inhibition of fungal growth)
Alternaria alternata = Alternaria alternata in vitro cell test; format: cell-based; conditions: 120 h, 20 ppm of active ingredient, liquid culture, 5 days incubation, read-out: efficacy (inhibition of fungal growth)
Description: as §2, with “of A. alternata” for “of C. lindemuthianum”, “inhibit spore” for “inhibit spores”, “After 5” for “After 6”

SMILES | inhibition at 20 ppm (Septoria tritici) [%] | pest or weed control at 500 ppm (Sphaerotheca fuliginea) [%] | pest or weed control at 500 ppm (Alternaria brassicae) [%] | inhibition at 20 ppm [1] [%] | chromatographic logP [2] | pest or weed control at 500 ppm (Botrytis cinerea) [%] | pest or weed control at 500 ppm (Pyrenophora teres) [%] | inhibition at 20 ppm (Fusarium culmorum) [%] | pest or weed control at 500 ppm [3] [%] | inhibition at 20 ppm (Pyricularia Oryzae) [%] | inhibition at 20 ppm (Alternaria alternata) [%]
Cc1ccc(CC2CON=C(c3cc(C)nnc3Oc3cccc(Cl)c3)N2)c(Br)c1 (racemic) [Compound I-001, (5RS)-5-(2-bromo-4-methylbenzyl)-3-[3-(3-chlorophenoxy)-6-methylpyridazin-4-yl]-5,6-dihydro-4H-1,2,4-oxadiazine] | 90 to 100 | 90 to 100 | 90 to 100 | 90 to 100 | 3.94 | 90 to 100 | 90 to 100 | 90 to 100 | 90 to 100 | 90 to 100 | 90 to 100
Cc1ccc(CC2CON=C(c3cc(C)nnc3Oc3cccc(Cl)c3)N2)c(C)c1 (racemic) [Compound I-002, (5RS)-3-[3-(3-chlorophenoxy)-6-methylpyridazin-4-yl]-5-(2,4-dimethylbenzyl)-5,6-dihydro-4H-1,2,4-oxadiazine] | 90 to 100 | 90 to 100 | 90 to 100 | 90 to 100 | 3.77 | 90 to 100 | 90 to 100 | 90 to 100 | 90 to 100 | 90 to 100 | 90 to 100
Cc1ccc(CC2CON=C(c3cc(C)nnc3Oc3cccc(C)c3F)N2)c(Cl)c1 (racemic) [Compound I-003, (5RS)-5-(2-chloro-4-methylbenzyl)-3-[3-(2-fluoro-3-methylphenoxy)-6-methylpyridazin-4-yl]-5,6-dihydro-4H-1,2,4-oxadiazine] | 90 to 100 | 90 to 100 | 90 to 100 | 90 to 100 | 3.78 | 90 to 100 | 90 to 100 | 90 to 100 | 90 to 100 | 90 to 100 | 90 to 100
Cc1ccc(CC2CON=C(c3cc(C)nnc3Oc3cccc(Cl)c3)N2)c(Cl)c1 (racemic) [Compound I-004, (5RS)-5-(2-chloro-4-methylbenzyl)-3-[3-(3-chlorophenoxy)-6-methylpyridazin-4-yl]-5,6-dihydro-4H-1,2,4-oxadiazine] | 90 to 100 | 90 to 100 | 90 to 100 | 90 to 100 | 3.81 | 90 to 100 | 90 to 100 | 90 to 100 | 90 to 100 | 90 to 100 | 90 to 100
Cc1cccc(Oc2nnc(Cl)cc2C2=NOCC(Cc3ccc(Cl)cc3Cl)N2)c1F (racemic) [Compound I-005, (5RS)-3-[6-chloro-3-(2-fluoro-3-methylphenoxy)pyridazin-4-yl]-5-(2,4-dichlorobenzyl)-5,6-dihydro-4H-1,2,4-oxadiazine] | 90 to 100 | 90 to 100 | 90 to 100 | 90 to 100 | 4.47 | 90 to 100 | 90 to 100 | 90 to 100 | 90 to 100 | 90 to 100 | 90 to 100
Cc1ccc(CC2CON=C(c3cc(C)nnc3Oc3cccc(Cl)c3F)N2)c(Br)c1 (racemic) [Compound I-006, (5RS)-5-(2-bromo-4-methylbenzyl)-3-[3-(3-chloro-2-fluorophenoxy)-6-methylpyridazin-4-yl]-5,6-dihydro-4H-1,2,4-oxadiazine] | 90 to 100 | 90 to 100 | 90 to 100 | 90 to 100 | 4.01 | 90 to 100 | 90 to 100 | 90 to 100 | 90 to 100 | 90 to 100 | 90 to 100
Cc1cc(C2=NOCC(Cc3ccc(Cl)cc3Cl)N2)c(Oc2cccc(C)c2F)nn1 (racemic) [Compound I-007, (5RS)-5-(2,4-dichlorobenzyl)-3-[3-(2-fluoro-3-methylphenoxy)-6-methylpyridazin-4-yl]-5,6-dihydro-4H-1,2,4-oxadiazine] | 90 to 100 | 90 to 100 | 90 to 100 | 90 to 100 | 3.91 | 90 to 100 | 90 to 100 | 90 to 100 | 90 to 100 | 90 to 100 | 90 to 100
